These results are taken from patent US20150202179A1, “FATTY ACID DERIVATIVES FOR USE IN A METHOD OF TREATING DEPRESSION AND ASSOCIATED CONDITIONS” (YISSUM RESEARCH DEVELOPMENT COMPANY OF THE HEBREW …, priority 2012, published 2015).

Assay [1] deals with p-SAPK/JNK. Kind of assay: p-SAPK/JNK levels in the hypothalamus. The format is in vivo, BALB/c mice. Conditions: FIG. 16. The text has this: (§1) 50, 2 month old female BALB/c mice, 10 mice per group, on ad libitum diet were separated (each mouse in a different cage) for 9 days (Separation Stress, a model for depression).
The nature of assay [2]: Tail Suspension Test, compound X dose study. The assay is classed as in vivo, BALB/c mice. The following applies: 10 mg/kg i.p.; day 23; more than imipramine and other concentrations. The text has this:
(§2) Tail suspension test (TST): Animals are suspended upside down by adhesive tape placed 1 cm from the tail tip. The elevation of the animal is 50 cm from the nearest surface. […] Statistical analysis compares the magnitude of immobility (in seconds) between different treatment groups. In this test, antidepressants characteristically cause an increase of the time fraction spent by the animal as active at the expense of the inactivity period.
50, 2 month old BALB/c mice, 10 mice per group, on ad libitum diet were divided to 5 experimental groups with equal weight. On the 2, 3, 4, 5, 9, 11, 16, 18, 23, 25, 29, 31 days mice were administered with either vehicle or compound x 0.1, 1, 10 mg/kg i.p. or imipramine 10 mg/kg.

For assay [3], the system named is leptin. Kind of assay: Leptin levels in the hypothalamus. The assay is classed as in vivo, BALB/c mice. The following applies: FIG. 15.
Description: as §1

The test system of assay [4] is NPY protein. In words: NPY protein expression by western blot. The format is in vivo, BALB/c mice. The following applies: FIG. 13. The procedure:
50, 2 month old female BALB/c mice, 10 mice per group, on ad libitum diet were separated (each mouse in a different cage) for 9 days (Separation Stress, a model for depression). On the 7, 8, 9, 34-40 days mice were administered with either vehicle or compounds X, 12 and 15 (1 mg/kg i.p.) or imipramine 10 mg/kg (antidepressant).
For orientation: A western blot detects proteins with antibodies after separation by electrophoresis.

Assay [5] in a line: Tail Suspension Test, separated BALB/c mice (model for depression). The assay is classed as in vivo. The following applies: compounds 1 mg/kg i.p., imipramine 10 mg/kg i.p.; day 7; in relation to vehicle.
Description: as §2
50, 2 month old female BALB/c mice were separated (each mouse in a different cage) for 9 days period (a model for depression). On days 7, 8, 9, 34-40 mice were administered with either vehicle or compounds X, 12 and 15 (1 mg/kg i.p.) or imipramine 10 mg/kg (anti-depressant) i.p. and tested in the Tail suspension test on day 7 of the experiment (10 mice per group).

Assay [6] concerns serotonin (5HT) levels. In words: Serotonin (5HT) determination in brain tissue by HPLC with electrochemical detection. The assay is classed as in vivo, mice. The following applies: for 5HT: ng/g wet tissue +/− SEM; for 5HT levels in the hippocampus vs. control / 5HT levels in the hypothalamus vs. control: result in words. Here is the method: (§3) Solution of DHBA as internal standard in the concentration of: 1 μg/ml in 0.1M perchloric acid, were prepared. Standard solutions of NE and 5HT in the concentration of 1-0.1 μg/ml in 0.1M perchloric acid were prepared.
(§4) Tissues (hypothalamus and hippocampus) obtained from 6-8 mice were dissected on ice surface and kept at −80 C. Hypothalamus (HT) or hippocampus (HC) from 1 mice were weighted (weight of HT −10-20 mg, HC 30-40 mg) and placed in eppendorf micro-centrifuge tube, 1.5 ml. To each tube was added 120-160 μl of ice cold solution of Perchloric acid and DHBA, homogenized in ice bath on Sonics vibra cell, 3×20 sec., 0.4 watts and centrifuged at 14,000×g at 4° C. 10 min. Supernatant gained was stored in ice before analysis.
(§5) The HPLC system consisted of Jasco PU-980 pump, Jasco AS-950-10 autosampler cooled at 4° C., H3 ODS-125A 3 μm 125 mm×4.6 mm i.d. analytical column (Hichrom, UK) were used. Electrochemical detector Coulochem ESA 5100A with analytical cell model 5011 was used for control detector voltage and record the current. Working electrode was set at potential +350 mV. Control and data collection/processing were handled through Borwin chromatography software.
(§6) The mobile phase composition: A stock buffer was prepared as follows: 20 mM sodium dihydrogenorthophosphate, EDTA 3 mg/l, 1-heptanesulfonic acid 1 g/l were dissolved in 1 liter deionized distilled water and buffered to pH 3.7 using concentrated phosphoric acid. To prepare the mobile phase buffer was mixed with acetonitrile (Baker HPLC analyzed) in the ratio 85:15 (v/v), filtered through a 0.2 μm membrane filter and degassed under vacuum after mixing. Mobile phase flow rate 1 ml/min. Injection volume 20 μl, retention time for DHBA 4.2 min., norepinephrine—3.1 min., 5HT 8.6 min. For calibration curve 1 ug/ml solution of DHBA together with 1.0-0.1 μg/ml solutions of 5HT and NE were used. The ratio between 5HT or NE and DHBA used to calculate the level of 5HT and NE in the sample. Date are given in ng/g wet tissue +/−SEM.

Assay [7] concerns Norepinephrine (NE) levels. In words: Norepinephrine (NE) determination in brain tissue by HPLC with electrochemical detection. The following applies: for NE: ng/g wet tissue +/− SEM; for norepinephrine levels in the hippocampus vs. control / norepinephrine levels in the hypothalamus vs. control: result in words. The format is in vivo, mice. Here is the method:
as §3, §4, §5, §6

The test system of assay [8] is POMC protein. Kind of assay: POMC protein expression by western blot. The assay is classed as in vivo, BALB/c mice. Here is the method:
50, 2 month old female BALB/c mice, 10 mice per group, on ad libitum diet were separated (each mouse in a different cage) for 9 days (Separation Stress, a model for depression). On the 7, 8, 9, 34-40 days mice were administered with either vehicle or compounds x, 12 and 15 (1 mg/kg i.p.) or imipramine 10 mg/kg (antidepressant). POMC protein was monitored by western blot.

Assay [9] in a line: Body weight of C57BL/6 mice. The format is in vivo. The text has this:
Thus the compounds of the invention can be used to treat conditions that are mediated by the enhancement of leptin levels. In obesity there is high leptin level however the leptin receptors are not responding. High CNS leptin level has anti-depression effect however, if there is tolerance there is no anti depression effect.

Assay [10] in a line: Weight and food consumption in Sabra mice. The assay is classed as in vivo. The procedure: 140 Female Sabra Mice 12 weeks old are divided to […] 10 mice in each group with equal weight. Mice are administered I.P. with either saline or 1 mg/kg Fluoxetine (PROZAC), compound 1, 4, 5, 7, 10, 11, 12, 13, 14, 15, 19, 26 for a 4 weeks period. On day 30 and on, mice were tested by the following behavioral tests. […]

Each structure is given as a SMILES string. Like-named read-outs stand apart in the source and are kept apart here.

For the molecule `CCCCCCCC/C=C\CCCCCCCC(=O)N[C@H](CO)C(C)C` [Compound 1, oleoyl-L-valinol amide], in [1], the “p-SAPK/JNK levels in the hypothalamus” value is “significant decrease”. Besides, the “motor activity in Tail Suspension Test” value in [2] was “improved significantly motor activity”. Further, in assay [3], the “leptin levels in the hypothalamus” value was “tendency to increase”. The “NPY protein expression in the hypothalamus” value in assay [4] is “decrease significantly”. Further, in assay [5], the “activity in Tail Suspension Test” value is “significantly enhanced activity”. Further, the results for the “5HT” value in assay [6] (Hippocampus) and in assay [6] (Hypothalamus) were 342.2 ± 33 ng/g and 854.4 ± 16.8 ng/g, respectively. The “5HT levels in the hippocampus vs. control” value is on record as “significantly enhanced” in assay [6] and “increased significantly” in assay [6] (listed as X). The “5HT levels in the hypothalamus vs. control” value in [6] is recorded as “significantly enhanced”; in [6] (listed as X), “increased significantly”. For the same molecule, the “NE” value in assay [7] (Hippocampus) turned out to be 283.28 ± 24 ng/g; in assay [7] (Hypothalamus), 1090 ± 10.4 ng/g. Also, the results for the “norepinephrine levels in the hippocampus vs. control” value in assay [7] and in [7] (listed as X) were “significantly enhanced” and “increase significantly”, respectively. Also, the “norepinephrine levels in the hypothalamus vs. control” value in [7] is “significantly enhanced”; in assay [7] (listed as X), “increased significantly”. For the same molecule, the “POMC protein expression in the hippocampus” value in [8] (hippocampus, FIG. 12) is recorded as “increased significantly”. In addition, in [8] (hypothalamus, FIG. 11), the “POMC protein expression in the hypothalamus” value is on record as “increased significantly”. In assay [9], the body weight entry is listed as “decreased body weight”. The food consumption entry in assay [10] was “significant decrease”. The results for the “weight (weight loss)” value in assay [10], in [10] (listed as OVA) and in [10] (listed as X) were “significant decrease”, “decreased body weight” and “significant weight loss”, respectively.
